Measured values from patent US20200260700A1, “Transgenic Insect and Use of Same in Methods for Testing Natural or Synthetic Substances” (Robert Bosch Gesellschaft für Medizinische Forschung mbH, priority 2017, published 2020).

Molecular target: human SLC22A1/OCT1 protein (Homo sapiens, UniProt O15245)
Conditions: ethidium bromide and cimetidine simultaneously injected into ventral side of Drosophila melanogaster embryos expressing OCT1/SLC22A1 reference sequence in salivary glands (GAL4/UAS); confocal laser scanning microscopy
Protocol: The salivary glands are moreover characterized by the tissue-specific expression of GFP. These living embryos were injected with 0.5 μM ethidium bromide. The accumulation of ethidium bromide in the salivary glands was visualized by confocal laser scanning microscopy.
The salivary glands are moreover characterized by the tissue-specific expression of GFP. Ethidium bromide and cimetidine were simultaneously injected into the ventral side of the embryos.

human SLC22A1/OCT1 protein, sequence (O15245 whole entry, the tested form may be a part): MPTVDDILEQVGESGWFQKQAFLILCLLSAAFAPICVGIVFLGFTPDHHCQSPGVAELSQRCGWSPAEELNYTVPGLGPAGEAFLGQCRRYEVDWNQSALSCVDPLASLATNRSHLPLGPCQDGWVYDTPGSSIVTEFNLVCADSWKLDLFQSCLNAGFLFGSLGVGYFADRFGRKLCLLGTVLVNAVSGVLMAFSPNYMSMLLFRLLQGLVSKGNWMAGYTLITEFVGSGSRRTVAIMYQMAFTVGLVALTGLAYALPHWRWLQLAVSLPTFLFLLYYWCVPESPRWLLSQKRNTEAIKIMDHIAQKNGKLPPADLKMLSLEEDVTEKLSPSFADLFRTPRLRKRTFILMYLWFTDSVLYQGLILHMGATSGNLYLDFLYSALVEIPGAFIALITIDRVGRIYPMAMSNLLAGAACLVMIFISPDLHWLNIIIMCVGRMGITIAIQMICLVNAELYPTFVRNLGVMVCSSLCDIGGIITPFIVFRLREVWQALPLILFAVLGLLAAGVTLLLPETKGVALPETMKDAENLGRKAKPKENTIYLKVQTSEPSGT

- inhibition of the uptake of ethidium bromide: concentration-dependent
SMILES: CN/C(=N/CCSCc1nc[nH]c1C)NC#N [cimetidine]
